Drawing on US11306064B2, “Benzothia(di)azepine compounds and their use as bile acid modulators” (Albireo AB, priority 2018, dated 2022), this text covers IC50 for 19 compounds.

The target in one assay is T1, Human LBAT (Homo sapiens, UniProt Q14973).
T1 construct: expressed in transfected cells; kept under Geneticin selection
T1 sequence (Q14973 1-349): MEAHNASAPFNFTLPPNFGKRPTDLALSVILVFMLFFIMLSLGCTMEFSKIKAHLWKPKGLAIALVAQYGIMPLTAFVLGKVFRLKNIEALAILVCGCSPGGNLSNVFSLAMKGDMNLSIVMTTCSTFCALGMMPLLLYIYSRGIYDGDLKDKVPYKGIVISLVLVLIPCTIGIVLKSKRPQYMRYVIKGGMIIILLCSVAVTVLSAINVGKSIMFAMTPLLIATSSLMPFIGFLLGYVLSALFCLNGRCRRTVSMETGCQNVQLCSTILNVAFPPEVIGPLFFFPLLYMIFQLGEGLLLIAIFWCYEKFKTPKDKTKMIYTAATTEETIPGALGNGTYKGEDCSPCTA
Description: LBAT (h/m) assay: 3H-taurocholic acid uptake in human LBAT-overexpressing cells. The assay is classed as cell-based. Particulars: 0.3 μM 3H-taurocholic acid and 7.5 μM cold taurocholic acid, 20 minutes, read-out: hLBAT IC50. The procedure: LBAT (h/m) Assay Protocol
20,000 cells (Human or Mouse LBAT-overexpressing cells) were seeded in 96-wells plate (Corning CLS3809) in 100 μL MEM-alpha medium (Gibco 12571-063) supplemented with 10% FBS (Gibco 10438026) containing Geneticin (Gibco 10131-027) (1 mg/mL) and incubated at 37° C. in 5% CO2 for 24 hours. After incubation, media was decanted from the wells and cells were washed two times with 300 μL of basal MEM-alpha medium (FBS-free). After decanting basal MEM-alpha medium each time, plates were tapped against paper towel to ensure maximum removal of residual media. For human LBAT, incubation mix was prepared by adding test inhibitor dilutions (3-fold serial dilution in DMSO (Sigma D2650), 10 points) in MEM-alpha (without FBS) containing 0.3 μM 3H-taurocholic acid (ARC ART-1368) and 7.5 μM cold taurocholic acid (Sigma T4009) (maintaining 0.2% final DMSO concentration). For mouse LBAT, incubation mix was prepared by adding test inhibitor dilutions (3-fold serial dilution in DMSO, 10 points) in MEM-alpha (without FBS) containing 0.3 μM 3H-taurocholic acid and 25 μM cold taurocholic acid maintaining 0.2% final DMSO concentration).
50 μL of incubation mix containing test inhibitors was then added to the wells (in duplicate) and the plates were incubated for 20 minutes in a CO2 incubator at 37° C. After incubation, the reaction was stopped by keeping the plates on ice water mix for 2-3 minutes and then the incubation mix was aspirated completely from the wells. The wells were washed two times with 250 μL of chilled unlabelled 1 mM taurocholic acid dissolved in HEPES (Gibco 15630080)-buffered (10 mM) HBSS (Gibco 14175079) (pH 7.4). The plates were tapped against a paper towel after every wash to ensure maximum removal of blocking buffer.
100 μL of MicroScint-20 (PerkinElmer 6013621) was added to the wells and kept overnight at room temperature before reading the plates in TopCount NXT™ Microplate Scintillation and Luminescence Counter from PerkinElmer under 3H Test protocol (set at 120 seconds reading time per well, with normal plate orientation).
(§1) Preparation of Test Compound Dilutions
(§2) All test compounds were provided in powder form at room temperature. 10 mM DMSO stocks of the test compounds were prepared, aliquoted and stored at −20° C. From the 10 mM DMSO stock of the compounds, a 3-fold serial dilution in DMSO was prepared to get a total of 10 dilutions of the test compounds. 0.5 μL of this dilution in DMSO was added to 250 μL of FBS-free basal media containing 3H-taurocholic acid and cold taurocholic acid to prepare the incubation mixture.

For another assay, the target named is T2, Human ASBT (Homo sapiens, UniProt Q12908).
T2 construct: expressed in transfected cells; kept under Puromycin selection
T2 sequence (Q12908 1-348): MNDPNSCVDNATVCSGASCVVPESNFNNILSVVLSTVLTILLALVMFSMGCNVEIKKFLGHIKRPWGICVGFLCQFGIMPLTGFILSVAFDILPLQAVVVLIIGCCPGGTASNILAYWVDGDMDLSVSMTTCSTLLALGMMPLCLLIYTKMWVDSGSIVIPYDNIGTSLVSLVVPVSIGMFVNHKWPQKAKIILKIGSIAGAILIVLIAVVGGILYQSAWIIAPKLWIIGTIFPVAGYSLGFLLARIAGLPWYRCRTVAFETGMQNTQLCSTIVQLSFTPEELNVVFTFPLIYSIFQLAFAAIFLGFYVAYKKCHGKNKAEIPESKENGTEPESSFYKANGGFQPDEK
The assay can be described thus: ASBT (h/m) assay: 3H-taurocholic acid uptake in human ASBT-overexpressing cells. The assay is classed as cell-based. Particulars: 0.25 μM 3H-taurocholic acid and 5 μM cold taurocholic acid, 20 minutes, read-out: hASBT IC50. The procedure:
ASBT (h/m) Assay Protocol
10,000 cells (Human or Mouse ASBT-overexpressing cells) were seeded in 96-wells plate (Corning CLS3809) in 200 μL MEM-alpha medium (Gibco 12571-063) supplemented with 10% FBS (Gibco 10438026) containing Puromycin (Gibco A1113803) (10 μg/mL) and incubated at 37° C. in 5% CO2 for 48 hours. After incubation, media was decanted from the wells and cells were washed two times with 300 μL of basal MEM-alpha medium (FBS-free). After decanting basal MEM-alpha medium each time, plates were tapped against paper towel to ensure maximum removal of residual media. Test inhibitor dilutions (highest test concentration being 10 μM, 3-fold serial dilution, 10 points) prepared in DMSO (Sigma D2650) were added in incubation mix (maintaining 0.2% final DMSO concentration) containing 0.25 μM 3H-taurocholic acid (ARC ART-1368) and 5 μM of cold taurocholic acid (Sigma T4009). 50 μL of incubation mix containing test inhibitors was then added to the wells (in duplicate) and the plates were incubated for 20 minutes in a CO2 incubator at 37° C. After incubation, the reaction was stopped by keeping the plates on ice water mix for 2-3 minutes and then the incubation mix was aspirated completely from the wells. The wells were washed two times with 250 μL of chilled unlabelled 1 mM taurocholic acid dissolved in HEPES (Gibco 15630080)-buffered (10 mM) HBSS (Gibco 14175079) (pH 7.4). The plates were tapped against a paper towel after every wash to ensure maximum removal of blocking buffer.
100 μL of MicroScint-20 (PerkinElmer 6013621) was added to the wells and kept overnight at room temperature before reading the plates in TopCount NXT™ Microplate Scintillation and Luminescence Counter from PerkinElmer under 3H Test protocol (set at 120 seconds reading time per well).
as §1, §2

For the compound `CCCCC1(CC)CN(c2ccccc2)c2cc(Br)c(O/C=C/C(=O)O)cc2S(=O)(=O)C1` (racemic) [Example 4, (E)-3-((7-bromo-3-butyl-3-ethyl-1,1-dioxido-5-phenyl-2,3,4,5-tetrahydro-1,5-benzothiazepin-8-yl)oxy)acrylic acid], the IC50 on Human LBAT stood at 218 nM; at Human ASBT it was 167 nM.
Regarding `CCCCC1(CC)CN(c2ccccc2)c2cc(SC)c(O/C=C\C(=O)O)cc2S(=O)(=O)C1` (racemic) [Example 59, (Z)-3-((3-butyl-3-ethyl-7-(methylthio)-1,1-dioxido-5-phenyl-2,3,4,5-tetrahydro-1,5-benzothiazepin-8-yl)oxy)acrylic acid], the IC50 on Human ASBT is 85 nM.
For the compound `CCCCC1(CC)CN(c2ccccc2)c2cc(SC)c(O/C=C/C(=O)O)cc2S(=O)(=O)N1` (racemic) [Example 76, (E)-3-((3-butyl-3-ethyl-7-(methylthio)-1,1-dioxido-5-phenyl-2,3,4,5-tetrahydro-1,2,5-benzothiadiazepin-8-yl)oxy)acrylic Acid], the IC50 at Human LBAT came to 217 nM; at Human ASBT, 41 nM.
Take `CCCCC1(CC)CN(c2ccccc2)c2cc(NC)c(O/C=C/C(=O)O)cc2S(=O)(=O)C1` (racemic) [Example 91, (E)-3-((3-butyl-3-ethyl-7-(methylamino)-1,1-dioxido-5-phenyl-2,3,4,5-tetrahydro-1,5-benzothiazepin-8-yl)oxy)acrylic Acid]: the results for the IC50 on Human LBAT and at Human ASBT were 1300 nM and 41 nM, respectively.
Regarding `CCCCC1(CC)CN(c2ccccc2)c2cc(Br)c(O/C=C/C(=O)O)cc2S(=O)(=O)C1` (single isomer, unassigned) [Example 5, (E)-3-((7-bromo-3-butyl-3-ethyl-1,1-dioxido-5-phenyl-2,3,4,5-tetrahydro-1,5-benzothiazepin-8-yl)oxy)acrylic acid], the IC50 amounted to 290 nM at Human LBAT and 1230 nM at Human ASBT.
As to `CCCCC1(CC)CN(c2ccccc2)c2cc(SC)c(O/C=C/C(=O)O)cc2S(=O)(=O)C1` (single isomer, unassigned) [Example 17, (E)-3-((3-butyl-3-ethyl-7-(methylthio)-1,1-dioxido-5-phenyl-2,3,4,5-tetrahydro-1,5-benzothiazepin-8-yl)oxy)acrylic acid], on Human LBAT, the IC50 came out at 116 nM.
The same measure, in the same setting: to `CCCCC1(CC)CN(c2ccccc2)c2cc(Cl)c(O/C=C/C(=O)O)cc2S(=O)(=O)C1` (single isomer, unassigned) [Example 51, (E)-3-((3-butyl-7-chloro-3-ethyl-1,1-dioxido-5-phenyl-2,3,4,5-tetrahydro-1,5-benzothiazepin-8-yl)oxy)acrylic acid] belongs 96 nM.
With `CCCC[C@@]1(CC)CN(c2ccccc2)c2cc(SC)c(O/C=C\C(=O)O)cc2S(=O)(=O)C1` (single isomer, unassigned) [Example 60], the IC50 on Human LBAT was determined as 4220 nM; on Human ASBT, 39 nM.
Consider `CCCC[C@]1(CC)CN(c2ccccc2)c2cc(SC)c(O/C=C\C(=O)O)cc2S(=O)(=O)C1` (single isomer, unassigned) [Example 61], for which the IC50 on Human ASBT was 1620 nM.
Take `CCCC[C@]1(CC)CN(c2ccccc2)c2cc(SC)c(O/C=C/C(=O)O)cc2S(=O)(=O)N1` (single isomer, unassigned) [Example 78]: the IC50 turned out to be 96 nM at Human LBAT and 156 nM at Human ASBT.
For `CCCC[C@@]1(CC)CN(c2ccccc2)c2cc(SC)c(O/C=C/C(=O)O)cc2S(=O)(=O)N1C` (single isomer, unassigned) [Example 89], the IC50 came to 290 nM on Human LBAT and 2010 nM on Human ASBT.
As to `CCCC[C@@]1(CC)CN(c2ccccc2)c2cc(NC)c(O/C=C/C(=O)O)cc2S(=O)(=O)C1` (single isomer, unassigned) [Example 92], the figures for the IC50 on Human LBAT and on Human ASBT were 1470 nM and 748 nM, respectively.
As for `CCCC[C@]1(CC)CN(c2ccccc2)c2cc(NC)c(O/C=C/C(=O)O)cc2S(=O)(=O)C1` (single isomer, unassigned) [Example 93], the IC50 was 3160 nM at Human LBAT and 52 nM on Human ASBT.
In the same order, the values of `CCCC[C@]1(CC)CN(c2ccccc2)c2cc(F)c(O/C=C/C(=O)O)cc2S(=O)(=O)C1` (single isomer, unassigned) [Example 102] are 298 nM and 3330 nM.
Take `CCCC[C@@]1(CC)CN(c2ccccc2)c2cc(F)c(O/C=C/C(=O)O)cc2S(=O)(=O)C1` (single isomer, unassigned) [Example 103]: the IC50 at Human LBAT is 187 nM; on Human ASBT it was 320 nM.
On to `CCCC[C@]1(CC)CN(c2ccccc2)c2cc(N(C)C)c(O/C=C(\F)C(=O)O)cc2S(=O)(=O)C1` (single isomer, unassigned) [Example 110], for which the IC50 at Human LBAT was found to be 33 nM; on Human ASBT, 138 nM.
`CCCCC1(CCCC)CN(c2ccccc2)c2cc(SC)c(O/C=C/C(=O)O)cc2S(=O)(=O)C1` [Example 1, (E)-3-((3,3-dibutyl-7-(methylthio)-1,1-dioxido-5-phenyl-2,3,4,5-tetrahydro-1,5-benzothiazepin-8-yl)oxy)acrylic acid]: the IC50 on Human LBAT is 145 nM; at Human ASBT it was 70 nM.
In the case of `CCCCC1(CCCC)CN(c2ccccc2)c2cc(N(C)C)c(O/C=C/C(=O)O)cc2S(=O)(=O)C1` [Example 8, (E)-3-((3,3-dibutyl-7-(dimethylamino)-1,1-dioxido-5-phenyl-2,3,4,5-tetrahydro-1,5-benzothiazepin-8-yl)oxy)acrylic Acid], the figures for the IC50 on Human LBAT and on Human ASBT were 1470 nM and 40 nM, respectively.
For the compound `CCCCC1(CCCC)CN(c2ccccc2)c2cc(SC)c(O/C=C(\F)C(=O)O)cc2S(=O)(=O)N1C` [Example 105, (Z)-3-((3,3-dibutyl-2-methyl-7-(methylthio)-1,1-dioxido-5-phenyl-2,3,4,5-tetrahydro-1,2,5-benzothiadiazepin-8-yl)oxy)-2-fluoroacrylic Acid], the IC50 at Human LBAT came to 68 nM.

The IC50 is the concentration at which inhibition is half-maximal.
